Experimental data reported in patent US6391327B1, “Pesticidal composition” (priority 1998, dated 2002).
Read-outs that look alike come from different tables or passages of the source.

Experiments:
[1] = tested on: housefly (Musca domestica) which is resistant to pyrethroid; type: in vivo; details: topical, 2 days later, average of 3
Source text: One half (0.5)μL of the following acetone dissolving solution wherein the concentration was adjusted to set forth a dosage given below, was applied to the back thoracic region of a housefly (Musca domestica) which is resistant to pyrethroid and the mortality was examined 2 days later.

[2] = tested on: Formosan subterranean termites (Coptotermes formosanus); test: Soil tunneling test in glass tube with Formosan subterranean termites; type: in vivo; details: concentration of application 20 ppm, a week later, three repeats
Description: Three (3) cm of soil was packed into the central inner portion of a glass tube that has an inner diameter of 1.7 cm and is 15 cm long, and on one surface of the soil, 0.7 mL of each aqueous solution that has the examined compound formulated to a determined dilution (examined compound and applied concentration given in table 3). Subsequently, 4% agar was inserted onto both surfaces of the soil, 50 worker Formosan subterranean termites (Coptotermes formosanus) and 5 soldier Formosan subterranean termites were deposited into side of the inner part of the tube wherein no compound was applied, and the tunneled soil condition by the termites was examined a week later. The example was repeated thrice.
Within the results of table 3, A represents a condition wherein the termites tunneled through the surface of the soil of the treated side and the non-treated side, B represents a condition wherein the surface of the soil of the treated side was tunneled through and the agar was tunneled halfway, C represents a condition wherein the surface of the soil of the treated side was incompletely tunneled through and the agar had no visible tunneling.

Row | SMILES | mortality (%) ([1]; dosage 1.25 μg per insect) | mortality (%) ([1]; dosage 2.5 μg per insect) | mortality (%) ([1]; dosage 5 μg per insect) | mortality (%) ([1]; dosage 10 μg per insect) | results (tunneled soil condition by the termites) [2] | mortality (%) ([1]; dosage 0.625 μg per insect)
1 | C#CCC1=C(C)C(OC(=O)C2C(C=C(C)C)C2(C)C)CC1=O (mixture of isomers) [Prallethrin, (S)-2-methyl-4-oxo-3-prop-2-ynylcyclopent-2-enyl (1R)-cis,trans-2,2-dimethyl-3-(2-methylprop-1-enyl)cyclopropanecarboxylate] | 6.7 | 10 | 30 |  |  | 
2 | C/C(=N\C#N)N(C)Cc1ccc(Cl)nc1 [Compound A, (E)-N^1-[(6-chloro-3-pyridyl)methyl]-N^2-cyano-N^1-methylacetamidine] | 15 |  | 15 | 5 |  | 
3 | CN1COCN(Cc2cnc(Cl)s2)C1=N[N+](=O)[O-] [Compound D, 3-[(2-chloro-5-thiazolyl)methyl]-5-methyl-4-nitroiminotetrahydro-1,3,5-oxadiazine] |  |  |  |  | AAA | 
4 | CNC(=N[N+](=O)[O-])NCC1CCOC1 (stereo not shown) [Compound B, 1-(tetrahydrofuran-3-yl)methyl-3-methyl-2-nitroguanidine] | 45 |  |  |  | ACA | 10
